In patent US8889711B2, “Pyrazolopyridine derivatives as anticancer agent” (Pierre Fabre Medicament, priority 2009, dated 2014):

Target: ALK kinase (Homo sapiens, UniProt Q9UM73)
Assay: Test to measure ALK kinase inhibition (GST-PLCγ1 substrate, anti-phosphotyrosine ELISA, luminescence)
Type: biochemical
Details: ALK kinase 180 ng/ml, 250 μM ATP, 30 minutes at 30° C.
Procedure: Test to Measure ALK Kinase Inhibition
A ViewPlate (Packard) is incubated with the GST-PLCγ1 substrate (purified recombinant form) at 0.1 mg/ml in phosphate buffer (PBS pH 7.4)(100 μl/well) for one hour under shaking. The plate is then saturated with a blocking solution containing 5% bovine serum albumin (BSA) (SIGMA) in PBS buffer pH 7.4.
After adding the inhibitor at the desired final concentration (usual range of 30 μM to 10 nM), the reaction is conducted by adding the ALK kinase at 180 ng/ml in 13 mM Tris reaction buffer pH 7.5 (SIGMA); 6.5 mM MgCl2 (MERCK); 0.65 mM DiThioThreitol (DTT) (ACROS); 39 mM sodium β-glycerophosphate (TCI); 0.65 mM sodium orthovanadate (SIGMA) and 250 μM ATP (SIGMA). Incubation is carried out for 30 minutes at 30° C. under shaking.
After three washings under shaking in 0.1% PBS/Tween-20 buffer (SIGMA), an anti-phosphotyrosine antibody coupled with HRP (UBI) diluted to 1/1000th in PBS/BSA buffer 5 mg/ml, is incubated for one hour under shaking. After three further washings in 0.1% PBS/Tween-20, the wells are incubated two minutes with 100 μl of SuperSignal ELISA mixture (PIERCE).
The signal is read in luminescent mode using a luminometer (MOLECULAR DEVICES SpectraMax M5e).

Chain of ALK kinase (Q9UM73 19-1620): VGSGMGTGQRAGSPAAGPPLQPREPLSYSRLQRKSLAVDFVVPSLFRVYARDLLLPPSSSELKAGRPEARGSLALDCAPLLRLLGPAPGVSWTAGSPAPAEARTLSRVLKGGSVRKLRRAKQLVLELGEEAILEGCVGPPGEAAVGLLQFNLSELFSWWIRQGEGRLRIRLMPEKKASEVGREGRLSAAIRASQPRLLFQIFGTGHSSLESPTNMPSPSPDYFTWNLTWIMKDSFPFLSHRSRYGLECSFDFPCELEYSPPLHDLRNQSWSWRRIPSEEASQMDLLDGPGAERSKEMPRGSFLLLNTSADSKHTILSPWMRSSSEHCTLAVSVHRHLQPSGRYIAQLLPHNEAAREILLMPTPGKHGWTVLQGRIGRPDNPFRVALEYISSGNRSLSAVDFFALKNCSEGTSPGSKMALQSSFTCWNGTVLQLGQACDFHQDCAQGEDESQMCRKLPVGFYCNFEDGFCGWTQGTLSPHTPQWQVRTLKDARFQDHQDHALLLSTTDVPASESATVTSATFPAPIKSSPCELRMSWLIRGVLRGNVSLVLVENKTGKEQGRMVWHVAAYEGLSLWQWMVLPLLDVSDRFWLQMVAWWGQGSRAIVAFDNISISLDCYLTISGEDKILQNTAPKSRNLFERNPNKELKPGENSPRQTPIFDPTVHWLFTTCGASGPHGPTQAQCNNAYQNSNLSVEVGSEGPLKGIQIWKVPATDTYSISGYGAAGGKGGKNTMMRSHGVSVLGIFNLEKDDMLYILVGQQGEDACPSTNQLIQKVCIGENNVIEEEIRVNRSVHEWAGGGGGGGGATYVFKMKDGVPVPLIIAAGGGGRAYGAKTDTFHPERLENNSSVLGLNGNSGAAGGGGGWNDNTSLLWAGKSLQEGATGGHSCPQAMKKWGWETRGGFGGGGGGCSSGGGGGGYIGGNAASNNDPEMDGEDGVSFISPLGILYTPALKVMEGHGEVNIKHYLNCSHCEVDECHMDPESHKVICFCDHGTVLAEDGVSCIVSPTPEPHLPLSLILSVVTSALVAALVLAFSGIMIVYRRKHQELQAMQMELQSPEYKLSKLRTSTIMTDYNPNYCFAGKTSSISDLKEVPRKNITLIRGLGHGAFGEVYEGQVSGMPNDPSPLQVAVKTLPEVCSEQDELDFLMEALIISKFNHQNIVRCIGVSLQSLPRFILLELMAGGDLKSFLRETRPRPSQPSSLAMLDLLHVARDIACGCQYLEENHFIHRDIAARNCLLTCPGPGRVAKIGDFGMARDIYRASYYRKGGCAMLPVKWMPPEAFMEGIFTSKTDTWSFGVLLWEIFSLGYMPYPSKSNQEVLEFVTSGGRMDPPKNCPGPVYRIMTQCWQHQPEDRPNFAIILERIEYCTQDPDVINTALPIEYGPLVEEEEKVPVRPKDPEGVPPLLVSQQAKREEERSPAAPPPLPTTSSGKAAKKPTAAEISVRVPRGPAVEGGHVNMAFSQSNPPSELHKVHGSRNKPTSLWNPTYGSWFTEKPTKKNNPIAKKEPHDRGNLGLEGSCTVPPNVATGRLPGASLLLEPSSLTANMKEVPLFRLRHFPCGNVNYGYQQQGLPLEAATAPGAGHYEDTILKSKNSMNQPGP

| Structure (SMILES) | IC50 |
| --- | --- |
| N#Cc1c(-c2ccc(O)cc2F)nc2[nH]nc(N)c2c1-c1ccco1 [Compound 93] | > 10 µM |
| Cc1c(C#N)c(-c2ccc(O)cc2)nc2[nH]nc(-c3ccc(N4CCNCC4)cc3)c12 [Compound 96] | 0.1 to 1 µM |
| N#Cc1c(-c2ccc(O)cc2F)nc2[nH]ncc2c1-c1ccc(-c2nn[nH]n2)cc1 [Compound 101] | 1 to 10 µM |
| N#Cc1cc2c(-c3ccc(N4CCNCC4)cc3)n[nH]c2nc1-c1ccc(O)cc1 [Compound 102] | < 0.1 µM |
| CN1CCN(c2ccc(-c3c(C#N)c(-c4ccc(O)cc4F)nc4[nH]nc(N)c34)o2)CC1 [Compound 104] | < 0.1 µM |
| N#Cc1cc2c(N)n[nH]c2nc1-c1ccc(O)cc1F [Compound 105] | 0.1 to 1 µM |
| Cc1c(C#N)c(-c2ccc(O)cc2F)nc2[nH]nc(-c3csc(C4CCNCC4)n3)c12 [Compound 108] | < 0.1 µM |
| Cc1c(C#N)c(-c2ccc(O)cc2F)nc2[nH]nc(N)c12 [Compound 114] | 0.1 to 1 µM |
| Cc1n[nH]c2nc(-c3ccc(O)cc3F)c(C#N)c(-c3ccc(N(C)C)cc3)c12 [Compound 116] | 0.1 to 1 µM |
| N#Cc1c(-c2ccc(O)cc2F)nc2[nH]ncc2c1-c1ccc(Br)o1 [Compound 117] | < 0.1 µM |
| Cc1c(C#N)c(-c2ccc(O)cc2F)nc2[nH]nc(-c3ccc(N4CCNCC4)cc3)c12 [Compound 118] | < 0.1 µM |
| Cc1cc(-c2n[nH]c3nc(-c4ccc(O)cc4F)c(C#N)c(C)c23)no1 [Compound 120] | 0.1 to 1 µM |
| N#Cc1c(-c2ccc(O)cc2F)nc2[nH]nc(N)c2c1-c1ccc(N2CCNCC2)cc1 [Compound 121] | < 0.1 µM |
| CNC1CCN(c2ccc(-c3n[nH]c4nc(-c5ccc(O)cc5F)c(C#N)c(C)c34)cn2)C1 (stereo not shown) [Compound 123] | 0.1 to 1 µM |
| Cc1n[nH]c2nc(-c3ccc(O)cc3F)c(C#N)c(-c3ccc(N4CC[C@@H](N)C4)nc3)c12 [Compound 124] | < 0.1 µM |
| Cc1n[nH]c2nc(Cc3ccc(F)cc3F)c(C#N)c(-c3ccc(N4CCNCC4)cc3F)c12 [Compound 302] | > 10 µM |
| N#Cc1c(-c2ccc(O)cc2)nc2[nH]nc(N)c2c1-c1ccc(N2CCNCC2)cc1 [Compound 303] | 1 to 10 µM |
| N#Cc1c(-c2ccc(OC(=O)c3ccccc3)cc2F)nc2[nH]nc(N)c2c1-c1ccc(N2CCNCC2)cc1 [Compound 304] | 1 to 10 µM |
| COC(=O)c1c(-c2ccc(O)cc2)nc2[nH]nc(N)c2c1-c1ccc(N2CCNCC2)cc1 [Compound 305] | < 0.1 µM |
| COC(=O)c1c(-c2ccc(O)cc2)nc2[nH]nc(N)c2c1-c1ccc(N2CCN(C)CC2)cc1 [Compound 307] | < 0.1 µM |

Other lines, results leading:

| IC50 | Structure (SMILES) |
| --- | --- |
| 0.1 to 1 µM | Cc1c(C#N)c(-c2ccc(O)cc2)nc2[nH]nc(-c3ccnc(N4CCN(C)CC4)c3)c12 [Compound 103] |
| 0.1 to 1 µM | Cc1c(C#N)c(-c2ccc(O)cc2)nc2[nH]nc(-c3cccc(N4CCNCC4)c3)c12 [Compound 106] |
| < 0.1 µM | N#Cc1c(-c2ccc(O)cc2F)nc2[nH]ncc2c1-c1ccc(N2CCNCC2)o1 [Compound 113] |
| 0.1 to 1 µM | Cc1c(C#N)c(-c2ccc(O)cc2F)nc2[nH]nc(-c3ccc(N4CCN(C)CC4)nc3)c12 [Compound 115] |
| 0.1 to 1 µM | Cc1c(C#N)c(-c2ccc(O)cc2F)nc2[nH]nc(-c3ccc(N(C)CCN(C)C)nc3)c12 [Compound 119] |
| < 0.1 µM | Cc1n[nH]c2nc(-c3ccc(O)cc3F)c(C#N)c(-c3ccc(N4CC[C@@H](N)C4)o3)c12 [Compound 122] |
| < 0.1 µM | CNC1CCN(c2ccc(-c3c(C#N)c(-c4ccc(O)cc4F)nc4[nH]nc(C)c34)o2)C1 (stereo not shown) [Compound 130] |
| 0.1 to 1 µM | Cc1n[nH]c2nc(-c3ccc(O)cc3F)c(C#N)c(-c3ccc(N4CCNCC4)nc3)c12 [Compound 131] |
| < 0.1 µM | COC(=O)c1c(-c2ccc(OC(=O)C3CC3)cc2F)nc2[nH]nc(C)c2c1-c1ccc(N2CCNCC2)cc1 [Compound 306] |

System: karpas 299 cells
Assay: Measurement of inhibition of cell proliferation (Karpas), ATPlite
Type: cell-based
Details: Homo sapiens, KARPAS-299, 72 h
Procedure: Measurement of Inhibition of Cell Proliferation (Karpas):
The antiproliferative activities of the compounds were measured using the ATPlite technique (Perkin Elmer).
The non-adhering cells (karpas 299) are seeded in 96-well plates (300 000 cells/ml) on Day 1 at a concentration compatible with logarithmic growth for 72 hours required for evaluation of the compounds. All the cells are treated on Day 1, then placed in an incubator at 37° C. under 5% CO2 atmosphere. Cell viability is evaluated on Day 4 by assay of released ATP, characteristic of viable cells. The IC50 values are determined by non-linear regression on the basis of a sigmoid model of dose/response relationship, Hill's slope coefficient being left variable, performed using GraphPad software sequence with the supplied algorithm.

| Structure (SMILES) | IC50 |
| --- | --- |
| N#Cc1c(-c2ccc(O)cc2F)nc2[nH]nc(N)c2c1-c1ccco1 [Compound 93] | 0.1 to 1 µM |
| Cc1c(C#N)c(-c2ccc(O)cc2)nc2[nH]nc(-c3ccc(N4CCNCC4)cc3)c12 [Compound 96] | 1 to 10 µM |
| N#Cc1c(-c2ccc(O)cc2F)nc2[nH]ncc2c1-c1ccc(-c2nn[nH]n2)cc1 [Compound 101] | 1 to 10 µM |
| N#Cc1cc2c(-c3ccc(N4CCNCC4)cc3)n[nH]c2nc1-c1ccc(O)cc1 [Compound 102] | 0.1 to 1 µM |
| CN1CCN(c2ccc(-c3c(C#N)c(-c4ccc(O)cc4F)nc4[nH]nc(N)c34)o2)CC1 [Compound 104] | 1 to 10 µM |
| N#Cc1cc2c(N)n[nH]c2nc1-c1ccc(O)cc1F [Compound 105] | 1 to 10 µM |
| Cc1c(C#N)c(-c2ccc(O)cc2F)nc2[nH]nc(-c3csc(C4CCNCC4)n3)c12 [Compound 108] | 1 to 10 µM |
| Cc1c(C#N)c(-c2ccc(O)cc2F)nc2[nH]nc(N)c12 [Compound 114] | 1 to 10 µM |
| Cc1n[nH]c2nc(-c3ccc(O)cc3F)c(C#N)c(-c3ccc(N(C)C)cc3)c12 [Compound 116] | 1 to 10 µM |
| N#Cc1c(-c2ccc(O)cc2F)nc2[nH]ncc2c1-c1ccc(Br)o1 [Compound 117] | 0.1 to 1 µM |
| Cc1c(C#N)c(-c2ccc(O)cc2F)nc2[nH]nc(-c3ccc(N4CCNCC4)cc3)c12 [Compound 118] | 1 to 10 µM |
| Cc1cc(-c2n[nH]c3nc(-c4ccc(O)cc4F)c(C#N)c(C)c23)no1 [Compound 120] | 1 to 10 µM |
| N#Cc1c(-c2ccc(O)cc2F)nc2[nH]nc(N)c2c1-c1ccc(N2CCNCC2)cc1 [Compound 121] | 1 to 10 µM |
| CNC1CCN(c2ccc(-c3n[nH]c4nc(-c5ccc(O)cc5F)c(C#N)c(C)c34)cn2)C1 (stereo not shown) [Compound 123] | 1 to 10 µM |
| Cc1n[nH]c2nc(-c3ccc(O)cc3F)c(C#N)c(-c3ccc(N4CC[C@@H](N)C4)nc3)c12 [Compound 124] | 1 to 10 µM |

Continued, values first:

| IC50 | Structure (SMILES) |
| --- | --- |
| > 10 µM | Cc1c(C#N)c(-c2ccc(O)cc2)nc2[nH]nc(-c3ccnc(N4CCN(C)CC4)c3)c12 [Compound 103] |
| 1 to 10 µM | Cc1c(C#N)c(-c2ccc(O)cc2)nc2[nH]nc(-c3cccc(N4CCNCC4)c3)c12 [Compound 106] |
| 0.1 to 1 µM | N#Cc1c(-c2ccc(O)cc2F)nc2[nH]ncc2c1-c1ccc(N2CCNCC2)o1 [Compound 113] |
| 1 to 10 µM | Cc1c(C#N)c(-c2ccc(O)cc2F)nc2[nH]nc(-c3ccc(N4CCN(C)CC4)nc3)c12 [Compound 115] |
| 1 to 10 µM | Cc1c(C#N)c(-c2ccc(O)cc2F)nc2[nH]nc(-c3ccc(N(C)CCN(C)C)nc3)c12 [Compound 119] |
| 1 to 10 µM | Cc1n[nH]c2nc(-c3ccc(O)cc3F)c(C#N)c(-c3ccc(N4CC[C@@H](N)C4)o3)c12 [Compound 122] |
| 0.1 to 1 µM | CNC1CCN(c2ccc(-c3c(C#N)c(-c4ccc(O)cc4F)nc4[nH]nc(C)c34)o2)C1 (stereo not shown) [Compound 130] |
| 1 to 10 µM | Cc1n[nH]c2nc(-c3ccc(O)cc3F)c(C#N)c(-c3ccc(N4CCNCC4)nc3)c12 [Compound 131] |
